Assays:
Assay type in all cases: in vivo
[1] = system: Italian ryegrass (Lolium multiflorum); assay: Test A preemergence, visual injury rating; conditions: 0 to 100 scale (0 no effect, 100 complete control)
Method in brief: (§1)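 Compounds in non-phytotoxic solvent with surfactant applied as soil spray preemergence, or postemergence to plants 2-10 cm at one- to two-leaf stage, in loam/sand. After approximately 10 days in greenhouse, injury rated visually versus untreated controls, 0 (no effect) to 100 (complete control).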

[2] = system: barnyardgrass (Echinochloa crus-galli); assay: Test A preemergence, visual injury rating; conditions: 0 to 100 scale (0 no effect, 100 complete control)
Method in brief: as §1

[3] = system: giant foxtail (Setaria faberii); assay: Test A preemergence, visual injury rating; conditions: 0 to 100 scale (0 no effect, 100 complete control)
Method in brief: as §1

[4] = system: kochia (Kochia scoparia); assay: Test A preemergence, visual injury rating; conditions: 0 to 100 scale (0 no effect, 100 complete control)
Method in brief: as §1

[5] = system: pigweed (Amaranthus retroflexus); assay: Test A preemergence, visual injury rating; conditions: 0 to 100 scale (0 no effect, 100 complete control)
Method in brief: as §1

[6] = system: ragweed (common ragweed, Ambrosia elatior); assay: Test A preemergence, visual injury rating; conditions: 0 to 100 scale (0 no effect, 100 complete control)
Method in brief: as §1

[7] = system: Italian ryegrass (Lolium multiflorum); assay: Test A postemergence, visual injury rating; conditions: 0 is no effect, 100 is complete control
Method in brief: as §1

[8] = system: barnyardgrass (Echinochloa crus-galli); assay: Test A postemergence, visual injury rating; conditions: 0 is no effect, 100 is complete control
Method in brief: as §1

[9] = system: blackgrass (Alopecurus myosuroides); assay: Test A postemergence, visual injury rating; conditions: 0 is no effect, 100 is complete control
Method in brief: as §1

[10] = system: corn (Zea mays); assay: Test A postemergence, visual injury rating; conditions: 0 is no effect, 100 is complete control
Method in brief: as §1

[11] = system: galium (catchweed bedstraw, Galium aparine); assay: Test A postemergence, visual injury rating; conditions: 0 is no effect, 100 is complete control
Method in brief: as §1

[12] = system: giant foxtail (Setaria faberii); assay: Test A postemergence, visual injury rating; conditions: 0 is no effect, 100 is complete control
Method in brief: as §1

[13] = system: kochia (Kochia scoparia); assay: Test A postemergence, visual injury rating; conditions: 0 is no effect, 100 is complete control
Method in brief: as §1

[14] = system: pigweed (Amaranthus retroflexus); assay: Test A postemergence, visual injury rating; conditions: 0 is no effect, 100 is complete control
Method in brief: as §1

[15] = system: ragweed (common ragweed, Ambrosia elatior); assay: Test A postemergence, visual injury rating; conditions: 0 is no effect, 100 is complete control
Method in brief: as §1

[16] = system: wheat (Triticum aestivum); assay: Test A postemergence, visual injury rating; conditions: 0 is no effect, 100 is complete control
Method in brief: as §1

[17] = system: barnyardgrass (Echinochloa crus-galli); assay: Test B flooded paddy test, plant response rating; conditions: 250 g ai/ha; Flood; scale of 0 to 100 where 0 is no effect and 100 is complete control; 13 to 15 days
Method in brief: (§2)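 Under a constant 3 cm flood, test compounds went directly into the paddy water. Following 13 to 15 days of greenhouse growth, treated species and controls were compared by eye.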

[18] = system: ducksalad (Heteranthera limosa); assay: Test B flooded paddy test, plant response rating; conditions: 250 g ai/ha; Flood; scale of 0 to 100 where 0 is no effect and 100 is complete control; 13 to 15 days
Method in brief: as §2

[19] = system: rice (Oryza sativa); assay: Test B flooded paddy test, plant response rating; conditions: 250 g ai/ha; Flood; scale of 0 to 100 where 0 is no effect and 100 is complete control; 13 to 15 days
Method in brief: as §2

[20] = system: sedge, umbrella (small-flower umbrella sedge, Cyperus difformis); assay: Test B flooded paddy test, plant response rating; conditions: 250 g ai/ha; Flood; scale of 0 to 100 where 0 is no effect and 100 is complete control; 13 to 15 days
Method in brief: as §2

[21] = 125 g ai/ha, 0 to 100 scale, approximately 10 days

N#Cc1ccc(Oc2ncc(Cl)cn2)c(C(=O)OCCC(F)(F)F)c1 [Compound 64]
0: Ryegrass, Italian plant response rating ([1]; 125 g ai/ha) | Ryegrass, Italian plant response rating ([1]; 500 g ai/ha) | Barnyardgrass plant response rating ([2]; 125 g ai/ha) | Barnyardgrass plant response rating ([2]; 500 g ai/ha) | Foxtail, Giant plant response rating ([3]; 125 g ai/ha) | Foxtail, Giant plant response rating ([3]; 500 g ai/ha) | Kochia plant response rating ([4]; 125 g ai/ha) | Kochia plant response rating ([4]; 500 g ai/ha) | Pigweed plant response rating ([5]; 125 g ai/ha) | Pigweed plant response rating ([5]; 500 g ai/ha) | Ragweed plant response rating ([6]; 125 g ai/ha) | Ragweed plant response rating ([6]; 500 g ai/ha) | Ryegrass, Italian plant response rating (0 to 100 scale) ([7]; 125 g ai/ha) | Ryegrass, Italian plant response rating (0 to 100 scale) ([7]; 500 g ai/ha) | Barnyardgrass plant response rating (0 to 100 scale) ([8]; 125 g ai/ha) | Barnyardgrass plant response rating (0 to 100 scale) ([8]; 500 g ai/ha) | Blackgrass plant response rating (0 to 100 scale) ([9]; 125 g ai/ha) | Blackgrass plant response rating (0 to 100 scale) ([9]; 500 g ai/ha) | Corn plant response rating (0 to 100 scale) ([10]; 125 g ai/ha) | Corn plant response rating (0 to 100 scale) ([10]; 500 g ai/ha) | Galium plant response rating (0 to 100 scale) ([11]; 125 g ai/ha) | Galium plant response rating (0 to 100 scale) ([11]; 500 g ai/ha) | Foxtail, Giant plant response rating (0 to 100 scale) ([12]; 125 g ai/ha) | Foxtail, Giant plant response rating (0 to 100 scale) ([12]; 500 g ai/ha) | Kochia plant response rating (0 to 100 scale) ([13]; 125 g ai/ha) | Kochia plant response rating (0 to 100 scale) ([13]; 500 g ai/ha) | Pigweed plant response rating (0 to 100 scale) ([14]; 125 g ai/ha) | Pigweed plant response rating (0 to 100 scale) ([14]; 500 g ai/ha) | Ragweed plant response rating (0 to 100 scale) ([15]; 125 g ai/ha) | Ragweed plant response rating (0 to 100 scale) ([15]; 500 g ai/ha) | Wheat plant response rating (0 to 100 scale) ([16]; 125 g ai/ha) | Wheat plant response rating (0 to 100 scale) ([16]; 500 g ai/ha) | Plant response rating, Barnyardgrass [17] | Plant response rating, Ducksalad [18] | Plant response rating, Rice [19] | Plant response rating, Sedge, Umbrella [20]

C=CCSC(=O)c1c(Br)cccc1Oc1ncc(Cl)cn1 [Compound 91]
90: Barnyardgrass plant response rating ([2]; 125 g ai/ha) | Galium plant response rating (0 to 100 scale) ([11]; 500 g ai/ha)
95: Plant response rating, Sedge, Umbrella [20]
20: Kochia plant response rating ([4]; 125 g ai/ha) | Blackgrass plant response rating [9, 21] | Corn plant response rating [10, 21] | Ragweed plant response rating (0 to 100 scale) ([15]; 500 g ai/ha) | Wheat plant response rating [16, 21] | Plant response rating, Rice [19]
80: Ryegrass, Italian plant response rating ([1]; 500 g ai/ha)
50: Corn plant response rating (0 to 100 scale) ([10]; 500 g ai/ha)
40: Pigweed plant response rating ([5]; 125 g ai/ha)
0: Ryegrass, Italian plant response rating ([1]; 125 g ai/ha) | Ragweed plant response rating ([6]; 125 g ai/ha) | Ragweed plant response rating ([6]; 500 g ai/ha) | Ryegrass, Italian plant response rating [7, 21] | Ragweed plant response rating [15, 21] | Plant response rating, Barnyardgrass [17]
100: Barnyardgrass plant response rating ([2]; 500 g ai/ha) | Foxtail, Giant plant response rating ([3]; 500 g ai/ha) | Kochia plant response rating ([4]; 500 g ai/ha) | Pigweed plant response rating ([5]; 500 g ai/ha) | Barnyardgrass plant response rating (0 to 100 scale) ([8]; 500 g ai/ha) | Foxtail, Giant plant response rating (0 to 100 scale) ([12]; 500 g ai/ha) | Kochia plant response rating (0 to 100 scale) ([13]; 500 g ai/ha) | Pigweed plant response rating [14, 21] | Pigweed plant response rating (0 to 100 scale) ([14]; 500 g ai/ha) | Plant response rating, Ducksalad [18]
70: Foxtail, Giant plant response rating ([3]; 125 g ai/ha) | Galium plant response rating [11, 21]
60: Kochia plant response rating [13, 21]
30: Ryegrass, Italian plant response rating (0 to 100 scale) ([7]; 500 g ai/ha) | Barnyardgrass plant response rating [8, 21] | Blackgrass plant response rating (0 to 100 scale) ([9]; 500 g ai/ha) | Foxtail, Giant plant response rating [12, 21] | Wheat plant response rating (0 to 100 scale) ([16]; 500 g ai/ha)
